Measurements reported in patent US20020049151A1, “Therapeutic approaches to diseases by suppression of the NURR subfamily of nuclear transcription factors” (priority 2000, published 2002).

How the values were obtained:
CRH NBRE = assay: EMSA of synoviocyte nuclear extracts with CRH NBRE; assay type: cell-based, human; conditions: synoviocytes stimulated 1 h; 25 μM forskolin, 10 ng/ml TNFα, IL-1β or PGE2
Description: To analyze the effects of cytokines on the ability of NURR1 to bind DNA, EMSA was performed to examine the binding properties of NURR1 to the consensus sequence (NBRE) in the human CRH promoter. […] Binding of the larger protein complex, and to a lesser extent the smaller complex, was inhibited by 50× molar excess of unlabeled homologous oligonucleotide.
Nuclear extracts from untreated, 25 μM forskolin (FOR) or lOng/ml TNFα treated synoviocytes (1 h) were compared for increased binding to the α^32 P-labeled CRH NBRE. DNA-protein interactions were assayed in the presence of 50× molar excess of homologous oligonucleotide or NURR1 specific antiserum (NURR1 Ab).
Nuclear protein extracts were prepared as previously described (Murphy and Conneely, 1997). For the EMSAs, 1 μg of nuclear extract was incubated for 20 mins in the presence of 20 mM Hepes (pH 7.9), 5 mM MgCl2, 20% glycerol, 100 mM KCL, 0.2 mM EDTA, 8% Ficoll, […], 500 ng/μl poly (deoxyinosinicdeoxycytidylic) acid, 50 mM dithiothreitol (DTT) and [α-^32P]-dCTP labeled doublestranded oligonucleotide. For supershifts experiments, antibodies to NURR1 (Santa Cruz Biotechnology, Santa Cruz, Calif.) were added following the initial 20-minute incubation, then incubated for an additional 20 minutes. The samples were electrophoresed through a 5.5% non-denaturing polyacrylamide gel in 0.5× TrisBorate-EDTA (TBE) buffer. For competition studies, the reaction was performed as described with the indicated concentrations of unlabeled probe. The oligonucleotide CRH NBRE 5′-[…]-3′ (SEQ ID NO:152) was used in the mobility shift assay.

CRH mRNA = assay: RT-PCR of CRH mRNA in primary human synoviocytes; assay type: cell-based; conditions: primary RA and PsA synoviocytes, 6 h; 10 ng/ml IL-1β, IL-6, TNF, 1 μM PGE2, MoCM; mean +/−SE
Excerpt: To identify the origin of the cells that express CRH, the expression of CRH mRNA in isolated primary human synoviocyte cells was investigated. Synoviocytes are an important source and target cell for IL-1β, TNFα and PGE2 action within inflamed synovial tissue (Bucala et al., 1991). Moreover, these pro-inflammatory agents are important mediators in the pathogenesis of human synovial hyperplasia and cartilage destruction (MacNaul et aL., 1990). […] Representative examples of PCR products generated using synoviocytes maintained under normal conditions (Con), or exposed to 10 ng/ml IL-1β, IL-6, TNF, 1 μM PGE2, MoCM or 25 μM forskolin (FOR) for 6 h. Results were obtained from three separate experiments, using both RA and PsA cell lines. Values shown are the mean +/−SE. The symbol * indicates P<0.01 compared to control. PCR products generated were confirmed by Southern blot analysis using CDNA probes for human CRH and GAPDH.
The regulation of hypothalamic CRH gene expression by activation of adenylate cyclase/protein kinase A signaling pathway has previously been established (Guardiola-diaz et al., 1994). The ability of forskolin (FOR), an adenylate cyclase activating agent, was tested for stimulatory effects on CRH gene expression in primary synoviocytes. […] To determine regulatory signals of peripheral CRH expression the ability of pro-inflammatory agonists to regulate endogenous CRH MRNA was examined. […] Next, a comparison of the ability of individual pro-inflammatory mediators to induce CRH mRNA was performed. […] Levels of GAPDH mRNA remained relatively constant under all conditions tested (FIG. 1D).
Synovial tissue was treated for 4 h with 1 mg/ml collagenase (type I; Worthington Biochemical, Freehold, N.J.) in RPMI at 37° C. in 5% CO2. Dissociated cells were plated in RPMI supplemented with 10% fetal calf serum (GibcoBRL, Paisley, UK), penicillin (100 U/ml), streptomycin (100 U/ml) and fungizone (0.25 μg/ml). […] Twenty-four hours before transfection, 1×10^6 synoviocyte cells were plated in 25 cm^2 dishes and allowed to attach. […] Chloramphenicol acetyl transferase (CAT) levels were measured using a CAT ELISA (Boehringer Mannheim, Germany). Protein concentrations were determined by the Bradford assay (BioRad, Richmond, Calif.). […]

TNFα
binding of nuclear protein complexes with the CRH NBRE (CRH NBRE): significant increased binding | CRH mRNA expression, fold stimulation (CRH mRNA): 3.6+/−2.0 fold

IL-6: pro-inflammatory cytokine
CRH mRNA expression, fold stimulation (CRH mRNA): 1.5+/−1.2 fold

CCCCC[C@H](O)/C=C/[C@H]1[C@H](O)CC(=O)[C@@H]1C/C=C\CCCC(=O)O [PGE2, reference compound]
binding of nuclear protein complexes with the CRH NBRE (CRH NBRE): significant increased binding | CRH mRNA expression, fold stimulation (CRH mRNA): 3.85+/−1.5 fold

IL-1β: pro-inflammatory cytokine
binding of nuclear protein complexes with the CRH NBRE (CRH NBRE): significant increased binding | CRH mRNA expression, fold stimulation (CRH mRNA): 2.3+/−1.0 fold
